Measured values taken from patent US20240109930A1, “TRIAZOLYL-METHYL SUBSTITUTED ALPHA-D-GALACTOPYRANOSIDE DERIVATIVES” (Idorsia Pharmaceuticals Ltd, priority 2021, published 2024).

Columns and labels:
human Gal-1 (hGal-1) = human Gal-1 (hGal-1) (Homo sapiens, UniProt P09382, C131S/C17S/C43S/C61S/C89S); test: Competitive binding assay: biotinylated hGal-1 binding to microplate-adsorbed asialofetuin (ASF); conditions: IC50 values from several measurements given as geomean
Procedure: (§1) The inhibitory activity of compounds is determined in competitive binding assays. This spectrophotometric assay measures the binding of biotinylated human Gal-3 (hGal-3) or human Gal-1 (hGal-1), respectively, to a microplate-adsorbed glycoprotein, asialofetuin (ASF) (Proc Natl Acad Sci USA. 2013 Mar. 26; 110(13):5052-7.). Alternatively, and preferably, a human Gal-1 version in which all six cysteines are substituted by serines may be used.
(§2) Briefly, compounds are serially diluted in DMSO (working dilutions). ASF-coated 384well plates are supplemented with 22.8 μL/well of biotinylated hGal-3 or hGal-1 in assay buffer (i.e. 300-1000 ng/mL biotinylated hGal-3 or hGal-1) to which 1.2 μL of compound working dilutions are added and mixed.
(§3) Plates are incubated for 3 hours at 4° C., then washed with cold assay buffer (3×50 uL), incubated for 1 hour with 25 μL/well of a streptavidin-peroxidase solution (diluted in assay buffer to 80 ng/mL) at 4° C., followed by further washing steps with assay buffer (3×50 uL). Finally, 25 μL/well of ABTS substrate is added.
(§4) The calculated IC50 values may fluctuate depending on the daily assay performance. Fluctuations of this kind are known to those skilled in the art. IC50 values from several measurements are given as geomean values.

human Gal-3 (hGal-3) = human Gal-3 (hGal-3) (Homo sapiens (Human), UniProt P17931); test: Competitive binding assay: biotinylated hGal-3 binding to microplate-adsorbed asialofetuin (ASF); conditions: IC50 values from several measurements given as geomean
human Gal-3 (hGal-3), sequence (P17931 whole entry): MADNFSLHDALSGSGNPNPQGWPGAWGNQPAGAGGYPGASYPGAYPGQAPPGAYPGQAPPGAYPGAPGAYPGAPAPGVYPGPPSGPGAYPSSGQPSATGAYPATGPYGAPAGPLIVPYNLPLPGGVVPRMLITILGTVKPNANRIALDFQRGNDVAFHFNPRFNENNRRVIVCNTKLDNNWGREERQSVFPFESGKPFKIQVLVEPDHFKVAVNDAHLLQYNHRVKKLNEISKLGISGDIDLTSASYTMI
Procedure: as §1, §2, §3, §4

IC50 (human Gal-1 (hGal-1)) | IC50 (human Gal-3 (hGal-3)) | SMILES
1800 nM | 30 nM | CO[C@@H]1[C@@H](n2cc(-c3ccc(Br)c(F)c3F)nn2)[C@@H](O)[C@@H](CO)O[C@@H]1Cc1cn(C2(C)CC2)nn1 [Ex 4.1.23.]
2510 nM | 50 nM | CO[C@@H]1[C@@H](n2cc(-c3ccc(Cl)c(F)c3F)nn2)[C@@H](O)[C@@H](CO)O[C@@H]1Cc1cn(C2(CO)CCC2)nn1 [Ex 2.1.11.]
370 nM | 50 nM | CO[C@@H]1[C@@H](n2cc(-c3ccc(F)c(F)c3F)nn2)[C@@H](O)[C@@H](CO)O[C@@H]1Cc1cn(C2CCC23CCC3)nn1 (stereo partly shown) [Ex 3.1.82.]
760 nM | 70 nM | CO[C@@H]1[C@@H](n2cc(-c3ccc(F)c(F)c3F)nn2)[C@@H](O)[C@@H](CO)O[C@@H]1Cc1cn(C2CC3(CC3)C2)nn1 [Ex 3.1.26.]
9400 nM | 20 nM | COC1=C(N2CC(c3ccc(C)c(F)c3F)NN2)C(O)=C(CO)O[C@@H]1Cn1cc(C23CCC(NC(=O)OC(C)(C)C)(CC2)CC3)nn1 (stereo partly shown) [Ex 1.2.37.]
1720 nM | 40 nM | CO[C@@H]1[C@@H](n2cc(-c3ccc(F)c(F)c3F)nn2)[C@@H](O)[C@@H](CO)O[C@@H]1Cn1cc(C23CCC(NC(=O)OC(C)(C)C)(CC2)CC3)nn1 [Ex 3.2.37.]
2950 nM | 60 nM | COCC1(n2cc(C[C@H]3O[C@H](CO)[C@H](O)[C@H](n4cc(-c5ccc(Cl)c(F)c5F)nn4)[C@H]3OC)nn2)CC1 [Ex 2.1.7.]
810 nM | 50 nM | CO[C@@H]1[C@@H](n2cc(-c3ccc(F)c(F)c3F)nn2)[C@@H](O)[C@@H](CO)O[C@@H]1Cc1cn(C23CCC(N)(CC2)CC3)nn1 [Ex 3.2.39.]
1740 nM | 30 nM | CO[C@@H]1[C@@H](n2cc(-c3ccc(Cl)c(F)c3F)nn2)[C@@H](O)[C@@H](CO)O[C@@H]1Cc1cn(C2CCCCC2(F)F)nn1 (single isomer, unassigned) [Example 2.1.80.B]
1390 nM | 90 nM | CO[C@@H]1[C@@H](n2cc(-c3ccc(F)c(F)c3F)nn2)[C@@H](O)[C@@H](CO)O[C@@H]1Cc1cn(C2(CO)CC(F)(F)C2)nn1 [Ex 3.1.18.]
9170 nM | 130 nM | CO[C@@H]1[C@@H](n2cc(-c3ccc(Cl)c(F)c3F)nn2)[C@@H](O)[C@@H](CO)O[C@@H]1Cc1cn(C2CC(C(F)(F)F)C2)nn1 (stereo partly shown) [Ex 2.1.41.]
2460 nM | 70 nM | CO[C@@H]1[C@@H](n2cc(-c3ccc(Cl)c(F)c3F)nn2)[C@@H](O)[C@@H](CO)O[C@@H]1Cn1cc(C2(C(F)(F)F)CC2)nn1 [Ex 2.2.54.]
1530 nM | 70 nM | COCC1(n2cc(C[C@H]3O[C@H](CO)[C@H](O)[C@H](n4cc(-c5ccc(Br)c(F)c5F)nn4)[C@H]3OC)nn2)CCC1 [Ex 4.1.21.]
3300 nM | 40 nM | CO[C@@H]1[C@@H](n2cc(-c3ccc(Br)c(F)c3F)nn2)[C@@H](O)[C@@H](CO)O[C@@H]1Cc1cn(C23COC(C2)C3)nn1 [Ex 4.1.44.]
820 nM | 50 nM | CO[C@@H]1[C@@H](n2cc(-c3ccc(Cl)c(F)c3F)nn2)[C@@H](O)[C@@H](CO)O[C@@H]1Cc1cn(C(C)(C)C(F)(F)F)nn1 [Ex 2.1.56.]
770 nM | 60 nM | COCC1(n2cc(C[C@H]3O[C@H](CO)[C@H](O)[C@H](n4cc(-c5ccc(F)c(F)c5F)nn4)[C@H]3OC)nn2)COC1 [Ex 3.1.21.]
890 nM | 40 nM | CO[C@@H]1[C@@H](n2cc(-c3ccc(F)c(F)c3F)nn2)[C@@H](O)[C@@H](CO)O[C@@H]1Cc1cn(C2(CO)CCC2)nn1 [Ex 3.1.11.]
800 nM | 30 nM | CO[C@@H]1[C@@H](n2cc(-c3ccc(C)c(F)c3F)nn2)[C@@H](O)[C@@H](CO)O[C@@H]1Cc1cn(C2(C(F)(F)F)COC2)nn1 [Ex 1.1.58.]

IC50 (human Gal-1 (hGal-1)) | IC50 (human Gal-3 (hGal-3)) | SMILES
1090 nM | 20 nM | CO[C@@H]1[C@@H](n2cc(-c3ccc(Cl)c(F)c3F)nn2)[C@@H](O)[C@@H](CO)O[C@@H]1Cc1cn(C2(C)CC2)nn1 [Ex 2.1.23.]
2080 nM | 90 nM | CO[C@@H]1[C@@H](n2cc(-c3ccc(F)c(F)c3F)nn2)[C@@H](O)[C@@H](CO)O[C@@H]1Cc1cn(C23CC(C(F)(F)F)(C2)C3)nn1 [Ex 3.1.24.]
2000 nM | 40 nM | CO[C@@H]1[C@@H](n2cc(-c3ccc(Cl)c(F)c3F)nn2)[C@@H](O)[C@@H](CO)O[C@@H]1Cc1cn(C2CCC2(F)F)nn1 (single isomer, unassigned) [Example 2.1.63.B]
3690 nM | 50 nM | CO[C@@H]1[C@@H](n2cc(-c3ccc(C)c(F)c3F)nn2)[C@@H](O)[C@@H](CO)O[C@@H]1Cc1cn(C2CC3(COC3)C2)nn1 [Ex 1.1.16.]
1800 nM | 60 nM | CO[C@@H]1[C@@H](n2cc(-c3ccc(Cl)c(F)c3F)nn2)[C@@H](O)[C@@H](CO)O[C@@H]1Cc1cn([C@@H]2COCC[C@H]2F)nn1 [Example 2.1.65.A, (2R,3R,4S,5R,6R)-4-(4-(4-chloro-2,3-difluorophenyl)-1H-1,2,3-triazol-1-yl)-6-((1-((3R,4R)-4-fluorotetrahydro-2H-pyran-3-yl)-1H-1,2,3-triazol-4-yl)methyl)-2-(hydroxymethyl)-5-methoxytetrahydro-2H-pyran-3-ol]
910 nM | 20 nM | CO[C@@H]1[C@@H](n2cc(-c3ccc(Cl)c(F)c3F)nn2)[C@@H](O)[C@@H](CO)O[C@@H]1Cc1cn(C2COCC2(F)F)nn1 (mixture of isomers) [Example 2.1.90.B]
920 nM | 30 nM | CO[C@@H]1[C@@H](n2cc(-c3ccc(Cl)c(F)c3F)nn2)[C@@H](O)[C@@H](CO)O[C@@H]1Cc1cn([C@@H]2CC[C@@H]2F)nn1 (single isomer, unassigned) [Example 2.1.88.B, (2R,3R,4S,5R,6R)-4-(4-(4-chloro-2,3-difluorophenyl)-1H-1,2,3-triazol-1-yl)-6-((1-((1R*,2S*)-2-fluorocyclobutyl)-1H-1,2,3-triazol-4-yl)methyl)-2-(hydroxymethyl)-5-methoxytetrahydro-2H-pyran-3-ol]
2920 nM | 60 nM | CO[C@@H]1[C@@H](n2cc(-c3ccc(Cl)c(F)c3F)nn2)[C@@H](O)[C@@H](CO)O[C@@H]1Cc1cn([C@@H]2CCCC[C@H]2F)nn1 [Example 2.1.81.C, (2R,3R,4S,5R,6R)-4-(4-(4-chloro-2,3-difluorophenyl)-1H-1,2,3-triazol-1-yl)-6-((1-((1R,2R)-2-fluorocyclohexyl)-1H-1,2,3-triazol-4-yl)methyl)-2-(hydroxymethyl)-5-methoxytetrahydro-2H-pyran-3-ol]
2650 nM | 30 nM | CCC1(c2cn(C[C@H]3O[C@H](CO)[C@H](O)[C@H](n4cc(-c5ccc(C)c(F)c5F)nn4)[C@H]3OC)nn2)COC1 [Ex 1.2.38.]
28400 nM | 130 nM | CO[C@@H]1[C@@H](n2cc(-c3ccc(Br)c(F)c3F)nn2)[C@@H](O)[C@@H](CO)O[C@@H]1Cc1cn(C23CC(C(F)(F)F)(C2)C3)nn1 [Ex 4.1.24.]
700 nM | 30 nM | CO[C@@H]1[C@@H](n2cc(-c3ccc(Cl)c(F)c3F)nn2)[C@@H](O)[C@@H](CO)O[C@@H]1Cc1cn(C2(C(F)(F)F)CC2)nn1 [Ex 2.1.54., (2R,3R,4S,5R,6R)-4-(4-(4-Chloro-2,3-difluorophenyl)-1H-1,2,3-triazol-1-yl)-2-(hydroxymethyl)-5-methoxy-6-((1-(1-(trifluoromethyl)cyclopropyl)-1H-1,2,3-triazol-4-yl)methyl)tetrahydro-2H-pyran-3-ol]
17100 nM | 60 nM | CO[C@@H]1[C@@H](n2cc(-c3ccc(C)c(F)c3F)nn2)[C@@H](O)[C@@H](CO)O[C@@H]1Cc1cn(C2CC3(CC3)C2)nn1 [Ex 1.1.26.]
200 nM | 40 nM | CO[C@@H]1[C@@H](n2cc(-c3ccc(F)c(F)c3F)nn2)[C@@H](O)[C@@H](CO)O[C@@H]1Cc1cn(C2(C(F)(F)F)COC2)nn1 [Ex 3.1.58., (2R,3R,4S,5R,6R)-2-(hydroxymethyl)-5-methoxy-6-((1-(3-(trifluoromethyl)oxetan-3-yl)-1H-1,2,3-triazol-4-yl)methyl)-4-(4-(2,3,4-trifluorophenyl)-1H-1,2,3-triazol-1-yl)tetrahydro-2H-pyran-3-ol]
610 nM | 20 nM | CO[C@@H]1[C@@H](n2cc(-c3ccc(Cl)c(F)c3F)nn2)[C@@H](O)[C@@H](CO)O[C@@H]1Cc1cn(C2(C(F)F)CCC2)nn1 [Ex 2.1.43.]
460 nM | 50 nM | CO[C@@H]1[C@@H](n2cc(-c3ccc(F)c(F)c3F)nn2)[C@@H](O)[C@@H](CO)O[C@@H]1Cc1cn(C2(C)CC(F)(F)C2)nn1 [Ex 3.1.15.]
620 nM | 20 nM | CO[C@@H]1[C@@H](n2cc(-c3ccc(Cl)c(F)c3F)nn2)[C@@H](O)[C@@H](CO)O[C@@H]1Cc1cn(C2(C(F)(F)F)CCC2)nn1 [Ex 2.1.55.]
13100 nM | 70 nM | COC1=C(N2CC(c3ccc(Cl)c(F)c3F)NN2)C(O)=C(CO)O[C@@H]1Cn1cc(C23CCC(NC(=O)OC(C)(C)C)(CC2)CC3)nn1 (stereo partly shown) [Ex 2.2.37.]
